Values joined by “and” are separate entries in the source; they are usually repeats but may differ in a detail not shown here. Equal values may be shown once.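 All cell lines were grown in 96-well plates and treated with compound for 48 hours. GI50: concentration for 50% inhibition of growth. TGI is the concentration that stops growth completely.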
Columns and labels:
Assay in all cases: NCI-60 cell line screen, 48 h
[1] = tested on: HL-60(TB) leukemia
[2] = tested on: U251 CNS
[3] = tested on: SF-295 CNS
[4] = tested on: UO-31 renal
[5] = tested on: MDA-MB-435
[6] = tested on: HCT-15 colon
[7] = tested on: SF-268 CNS
[8] = tested on: NCI/ADR-RES ovarian
[9] = tested on: SNB-75 CNS
[10] = tested on: SNB-19 CNS
[11] = tested on: HCC-2998 colon
[12] = tested on: RPMI-8226 leukemia
[13] = tested on: NCI-H522 lung
[14] = tested on: NCI-H460 lung
[15] = tested on: A549 NSCLC
[16] = tested on: SK-OV-3 ovarian
[17] = tested on: SK-MEL-28 melanoma
[18] = tested on: HOP-62 NSCLC
[19] = tested on: IGROV1 ovarian
[20] = tested on: RXF 393 renal
[21] = tested on: A498 renal
[22] = tested on: SK-MEL-5 melanoma
[23] = tested on: TK-10 renal
[24] = tested on: DU-145 prostate
[25] = tested on: MDA-MB-231 breast
[26] = tested on: UACC-62 melanoma
[27] = tested on: HS 578T breast
[28] = tested on: M14 melanoma
[29] = tested on: ACHN renal

## Cc1ccc(NC(=O)c2ccc(CN3CC[C@H](N(C)C)C3)c(C(F)(F)F)c2)cc1Nc1nccc(-c2cncnc2)n1
[1]
  GI50: 5.85 µM and 0.758 µM
  TGI: 22.6 µM and > 10 µM
[2]
  GI50: 6.28 µM and 6.5 µM
  TGI: 17.3 µM and > 10 µM
[3]
  GI50: 4.85 µM and > 10 µM
  TGI: 12.5 µM and > 10 µM
[4]
  GI50: 6.69 µM and 5.17 µM
  TGI: 21.9 µM and > 10 µM
[5]
  GI50: 1.73 µM and 3.1 µM
  TGI: 15.6 µM and > 10 µM
[6]
  GI50: 4.47 µM and 5.13 µM
  TGI: 23.5 µM and > 10 µM
[7]
  GI50: 10.4 µM and > 10 µM
  TGI: 28.5 µM and > 10 µM
[8]
  GI50: 12.5 µM and > 10 µM
  TGI: 45.1 µM and > 10 µM
[9]
  GI50: 10.3 µM and > 10 µM
  TGI: 22.8 µM and > 10 µM
[10]
  GI50: 10.9 µM and > 10 µM
  TGI: 31.7 µM and > 10 µM
[11]
  GI50: 10.8 µM and > 10 µM
  TGI: 28 µM and > 10 µM
[12]
  GI50: 5.08 µM and 4.4 µM
  TGI: 24 µM and > 10 µM
[13]
  GI50: 4.5 µM and > 10 µM
  TGI: 13.1 µM and > 10 µM
[14]
  GI50: 2.99 µM and 8.15 µM
  TGI: 9.95 µM and > 10 µM
[15]
  GI50: 11.3 µM and > 10 µM
  TGI: 28.5 µM and > 10 µM
[16]
  GI50: 16 µM and > 10 µM
  TGI: 32.1 µM and > 10 µM
[17]
  GI50: 0.798 µM and 0.635 µM
  TGI: 5.53 µM and > 10 µM
[18]
  GI50: 9.83 µM and 9.62 µM
  TGI: 24.5 µM and > 10 µM
[19]
  GI50: 7.21 µM and 5.14 µM
  TGI: 24.8 µM and > 10 µM
[20]
  GI50: 11.9 µM and 9.4 µM
  TGI: 27 µM and > 10 µM
[21]
  GI50: 12.1 µM and > 10 µM
  TGI: 27.1 µM and > 10 µM
[22]
  GI50: 3.79 µM and 4.05 µM
  TGI: 9.07 µM and > 10 µM
[23]
  GI50: 15 µM and > 10 µM
  TGI: 28.4 µM and > 10 µM
[24]
  GI50: 12 µM and > 10 µM
  TGI: 29.6 µM and > 10 µM
[25]
  GI50: 1.42 µM and 1.98 µM
  TGI: 7.82 µM and > 10 µM
[26]
  GI50: 1.05 µM and 0.387 µM
  TGI: 15.7 µM and > 10 µM
[27]
  GI50: 7.62 µM and 2.23 µM
  TGI: 35.6 µM and > 10 µM
[28]
  GI50: 0.425 µM and 0.668 µM
  TGI: 4.9 µM and > 10 µM
[29]
  GI50: 4.04 µM and 8.38 µM

— PubChem BioAssay (NCI)
